This passage reports AC50 and EC50 results from ChEMBL document CHEMBL1201862, “PubChem BioAssay data set” (2004).

Activity calls are given as the source filed them.

Assay [1] in a line: Luminescence Cell-Based Dose Retest to Confirm Inhibitors of Cancer Stem Cells. [Related pubchem assays (depositor defined):AID2717, AID2721]. Particulars: Homo sapiens. The class given is functional.
Another assay has as its target Cytochrome P450 3A4 (Homo sapiens, UniProt P08684).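 Also: CYP3A4 tested as one member of a cytochrome P450 panel screen.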
Another assay deals with Cytochrome P450 2C9 (Homo sapiens, UniProt P11712).
Sequence of Cytochrome P450 2C9 (P11712 whole entry): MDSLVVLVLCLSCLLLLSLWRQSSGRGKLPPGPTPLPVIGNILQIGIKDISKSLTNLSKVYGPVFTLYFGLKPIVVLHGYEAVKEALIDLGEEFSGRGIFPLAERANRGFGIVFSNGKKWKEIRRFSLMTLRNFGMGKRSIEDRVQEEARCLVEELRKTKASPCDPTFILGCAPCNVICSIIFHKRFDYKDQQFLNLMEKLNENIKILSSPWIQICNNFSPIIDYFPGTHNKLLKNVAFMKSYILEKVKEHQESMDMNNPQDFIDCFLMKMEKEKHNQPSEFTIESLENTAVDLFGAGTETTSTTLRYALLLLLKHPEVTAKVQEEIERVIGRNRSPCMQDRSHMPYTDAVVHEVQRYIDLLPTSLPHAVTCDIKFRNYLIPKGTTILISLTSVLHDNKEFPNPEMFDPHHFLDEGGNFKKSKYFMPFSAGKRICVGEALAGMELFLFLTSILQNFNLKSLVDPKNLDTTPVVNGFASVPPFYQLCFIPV
The next assay deals with T1, Cytochrome P450 1A2 (Homo sapiens, UniProt P05177).
T1 sequence (P05177 whole entry): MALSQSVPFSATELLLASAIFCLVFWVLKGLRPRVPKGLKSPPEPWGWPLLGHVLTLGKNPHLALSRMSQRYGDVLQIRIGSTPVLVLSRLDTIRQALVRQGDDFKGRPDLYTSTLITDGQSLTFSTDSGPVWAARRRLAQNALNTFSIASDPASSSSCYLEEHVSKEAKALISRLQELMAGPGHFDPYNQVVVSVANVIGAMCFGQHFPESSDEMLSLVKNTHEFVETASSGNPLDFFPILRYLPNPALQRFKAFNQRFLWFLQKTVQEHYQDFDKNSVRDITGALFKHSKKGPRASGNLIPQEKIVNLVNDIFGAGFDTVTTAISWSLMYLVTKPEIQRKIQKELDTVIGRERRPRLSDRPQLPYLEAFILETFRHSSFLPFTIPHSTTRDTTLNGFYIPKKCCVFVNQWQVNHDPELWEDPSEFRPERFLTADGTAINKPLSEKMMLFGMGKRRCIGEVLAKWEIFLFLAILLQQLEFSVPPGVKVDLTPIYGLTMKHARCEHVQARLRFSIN

The target of another assay is Cytochrome P450 2C19 (Homo sapiens, UniProt P33261). Nature of the assay: Cytochrome panel assay with activity outcomes. Panel member name: p450-cyp2c19 Compounds with AC50 equal or less than 10 uM are considered active. Type of assay: functional. Particulars: read-out: AC50.
Sequence of Cytochrome P450 2C19 (P33261 whole entry): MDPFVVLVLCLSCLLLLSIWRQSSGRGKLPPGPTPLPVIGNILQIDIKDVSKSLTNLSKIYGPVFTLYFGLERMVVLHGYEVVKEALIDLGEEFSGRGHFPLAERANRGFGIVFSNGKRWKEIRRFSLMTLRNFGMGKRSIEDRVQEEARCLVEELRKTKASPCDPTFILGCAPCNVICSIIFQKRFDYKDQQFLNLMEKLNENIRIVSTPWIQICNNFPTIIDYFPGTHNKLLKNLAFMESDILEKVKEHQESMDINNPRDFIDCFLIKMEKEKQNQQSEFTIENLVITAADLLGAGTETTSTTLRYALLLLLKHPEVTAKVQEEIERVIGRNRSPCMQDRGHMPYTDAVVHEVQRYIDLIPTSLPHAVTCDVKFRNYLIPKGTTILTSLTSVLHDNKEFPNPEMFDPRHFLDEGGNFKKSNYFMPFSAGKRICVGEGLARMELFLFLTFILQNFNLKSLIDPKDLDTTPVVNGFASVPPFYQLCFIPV
In assay [2] the target is T2, Heat shock factor protein 1 (Mus musculus, UniProt P38532).
T2 sequence (P38532 whole entry): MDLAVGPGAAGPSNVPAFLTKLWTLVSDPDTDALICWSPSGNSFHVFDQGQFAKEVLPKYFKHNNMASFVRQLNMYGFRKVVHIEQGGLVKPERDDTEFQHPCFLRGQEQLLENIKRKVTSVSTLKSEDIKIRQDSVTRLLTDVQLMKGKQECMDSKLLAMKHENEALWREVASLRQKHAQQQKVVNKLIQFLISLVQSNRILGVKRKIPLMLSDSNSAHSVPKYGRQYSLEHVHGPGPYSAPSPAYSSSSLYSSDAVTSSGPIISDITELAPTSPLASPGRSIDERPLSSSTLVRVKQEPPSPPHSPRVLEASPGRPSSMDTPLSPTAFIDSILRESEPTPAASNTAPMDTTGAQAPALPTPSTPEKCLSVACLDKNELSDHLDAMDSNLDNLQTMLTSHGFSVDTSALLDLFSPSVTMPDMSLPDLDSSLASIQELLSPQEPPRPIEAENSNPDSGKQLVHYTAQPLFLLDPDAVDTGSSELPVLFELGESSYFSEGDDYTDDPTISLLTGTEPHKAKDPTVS
The assay can be described thus: HSF1 potentiators in luciferase reporter cells, confirmation, cell-based, NIH3T3, luminescence, dose retest (AID 435004).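 Also: stress induced by proteasome inhibitor MG132 added 30 min after compound; luciferase reporter driven by HSF1 response element in NIH3T3 cells; actives raise luminescence as potentiators of the MG132 stress response.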 The class given is functional.

The nature of assay [3]: control 3'UTR Renilla luciferase suppression, dose response, counter-screen for Shn3 inhibitor project, cell-based, Clone20-Shn3RL, cherry-picked (AID 624133). The class given is functional.
The nature of assay [4]: Shn3 3'UTR reporter inhibitors, dose response, cell-based, Clone20 osteoblasts, firefly luciferase, cherry-picked (AID 624132).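 Also: firefly luciferase luminescence from reporter carrying the Shn3 3'UTR in osteoblasts.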 The class given is functional.
The nature of assay [5]: Luminescence Cell-Based Dose Confirmation HTS to Identify Activators of 5'UTR Stem-Loop Driven Alpha-Synuclein mRNA Translation in H4 Neuroglioblastoma Cells. [Related pubchem assays: 1829 (Project Summary), 1814 (Primary HTS)]. The class given is functional.
In assay [6] the target is T3, RNA-binding protein pos-1 (Caenorhabditis elegans, UniProt G5EF15).
T3 sequence (G5EF15 whole entry): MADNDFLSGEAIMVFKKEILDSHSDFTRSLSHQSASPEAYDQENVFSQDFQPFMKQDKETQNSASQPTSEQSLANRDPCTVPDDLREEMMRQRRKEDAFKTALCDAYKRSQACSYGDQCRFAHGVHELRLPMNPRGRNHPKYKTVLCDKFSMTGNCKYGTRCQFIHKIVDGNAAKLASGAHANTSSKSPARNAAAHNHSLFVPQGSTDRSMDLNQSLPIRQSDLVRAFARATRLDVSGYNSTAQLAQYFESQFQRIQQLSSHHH
Nature of the assay: inhibitors of POS-1/mex-3 RNA binding, dose response, biochemical, fluorescence polarization (AID 1964).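 Also: purified POS-1 fused to maltose binding protein made in E. coli; potency of compounds blocking POS-1 binding to fluorescent RNA.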

The target of assay [7] is T4, Zinc finger protein mex-5 (Caenorhabditis elegans, UniProt Q9XUB2).
T4 sequence (Q9XUB2 whole entry): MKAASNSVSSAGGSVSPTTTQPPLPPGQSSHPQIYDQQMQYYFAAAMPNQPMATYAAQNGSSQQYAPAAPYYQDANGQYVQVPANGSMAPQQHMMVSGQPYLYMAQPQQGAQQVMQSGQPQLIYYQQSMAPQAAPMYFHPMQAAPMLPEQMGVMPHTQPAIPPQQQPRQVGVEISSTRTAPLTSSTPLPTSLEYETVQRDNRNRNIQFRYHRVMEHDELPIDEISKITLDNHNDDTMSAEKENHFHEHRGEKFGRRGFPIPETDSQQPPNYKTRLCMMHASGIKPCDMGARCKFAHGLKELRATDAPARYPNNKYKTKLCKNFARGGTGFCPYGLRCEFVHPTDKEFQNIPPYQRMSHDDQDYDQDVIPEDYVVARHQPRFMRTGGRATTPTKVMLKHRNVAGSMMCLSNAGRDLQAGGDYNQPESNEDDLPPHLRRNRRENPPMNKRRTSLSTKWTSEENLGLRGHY
The assay can be described thus: MEX-5/TCR-2 RNA interaction inhibitors, dose response, biochemical, C. elegans, fluorescence polarization (AID 1960).

Another assay concerns H4. The assay can be described thus: Luminescence Cell-Based Dose Response HTS to Identify Activators of 5'UTR Stem-Loop Driven Prion Protein mRNA Translation in H4 Neuroglioblastoma Cells. [Related pubchem assays: 1829 (Project Summary), 1814 (Primary HTS)]. Type of assay: functional. Particulars: Homo sapiens.
Assay [8] in a line: Luminescence Cell-Based Dose Response HTS to Identify Activators of Luciferase Translation or Activity in H4 […] Cells. [Related pubchem assays: 1829 (Project Summary), 1814 (Primary HTS)]. Type of assay: functional.

Sequence of Cytochrome P450 3A4 (P08684 whole entry): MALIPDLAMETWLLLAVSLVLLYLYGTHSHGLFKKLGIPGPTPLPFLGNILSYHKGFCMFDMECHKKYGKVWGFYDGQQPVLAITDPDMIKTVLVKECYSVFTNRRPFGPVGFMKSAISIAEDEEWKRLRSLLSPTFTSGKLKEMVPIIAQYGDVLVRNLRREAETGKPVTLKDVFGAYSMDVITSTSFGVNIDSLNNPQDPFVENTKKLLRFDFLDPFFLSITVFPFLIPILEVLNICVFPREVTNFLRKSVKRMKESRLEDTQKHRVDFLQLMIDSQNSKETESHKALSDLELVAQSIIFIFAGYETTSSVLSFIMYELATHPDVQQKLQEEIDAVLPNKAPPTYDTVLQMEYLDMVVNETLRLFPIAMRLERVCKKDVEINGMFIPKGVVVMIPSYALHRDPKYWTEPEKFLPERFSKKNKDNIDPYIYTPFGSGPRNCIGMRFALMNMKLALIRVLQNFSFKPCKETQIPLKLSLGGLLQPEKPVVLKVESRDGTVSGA

Take `COc1ccc(Cn2c3ccc(OC)cc3c3nc4ccccc4nc32)cc1`: in assay [1], the AC50 is 13 µM (active).
Turning to `COc1ccc(-c2csc(NC(=O)Cn3nc(C)cc3C)n2)cc1`, the AC50 was 15.8 µM (inconclusive) on Cytochrome P450 3A4 and 0.794 µM (inconclusive) on Cytochrome P450 2C9.
Consider `O=C(/C=C/c1ccc2c(c1)OCO2)NCCSCc1ccc(Cl)cc1`, for which the AC50 in [1] is 0.922 µM (active).
`O=c1c(-c2cccs2)nc2cnc(N3CCOCC3)nc2n1Cc1ccc(F)cc1`: the AC50 was 2.51 µM (inconclusive) at Cytochrome P450 3A4 and 20 µM (inconclusive) on Cytochrome P450 1A2.
In the case of `N#Cc1ccc(-c2ccc(F)cc2)nc1Sc1ccccc1`, the AC50 at Cytochrome P450 3A4 is 12.6 µM (inconclusive); on Cytochrome P450 2C9, 5.01 µM (inconclusive); on Cytochrome P450 2C19, 5.01 µM (inconclusive).
For `COc1ccccc1NC(=O)Nc1nc(CC(=O)N2CCN(c3ccccc3)CC2)cs1`, the EC50 in [2] was > 260 µM (inactive).
In the case of `CN1C(=O)c2cccc(NCCCCCCN3C(=O)c4ccccc4C3=O)c2C1=O`, the AC50 was 17.2 µM (active) in assay [3] and 5.57 µM (active) in assay [4].
Regarding `COc1ccc(-c2sc3cc4c(cc3c2C#CC2(O)CCCCC2)OCO4)cc1`, the AC50 in assay [1] is 4.07 µM (active).
`O=c1c(-c2cccc(F)c2)nc2cncnc2n1C1CC1`: on Cytochrome P450 3A4, the AC50 is 12.6 µM (inconclusive).
For the compound `Cc1ccc(NS(=O)(=O)c2sc3ccc(Cl)cc3c2C)cc1`, in assay [1], the AC50 is 3.78 µM (active).
Consider `Cc1onc(-c2ccccc2)c1NC(=O)N(CCC#N)Cc1ccccc1`, for which the EC50 in [2] is > 260 µM (inactive).
Regarding `CC(C)c1ccc(N2C(=O)CC(Sc3nc4ccccc4o3)C2=O)cc1` (stereo unspecified), the AC50 on Cytochrome P450 3A4 was 39.8 µM (inconclusive); on Cytochrome P450 1A2 it was 5.01 µM (inconclusive).
Regarding `CCNc1ncc2nc(-c3ccc(OC)cc3)c(=O)n(-c3ccc(OC)cc3)c2n1`, the AC50 at Cytochrome P450 3A4 was 12.6 µM (inconclusive).
With `O=C(CN1CCOCC1)N(c1ccccc1)c1ccc2ccccc2c1`, the EC50 in assay [2] is > 260 µM (inactive).
The same measure, in the same setting: the result for `Cc1ccn(CC(=O)N2CCCC(N3CCN(c4ccc(F)cc4)CC3)C2)n1` (stereo unspecified) reads > 260 µM (inactive).
For the compound `COCCNC(=O)CSc1nc2cc(OC)c(OC)cc2c(=O)n1Cc1ccco1`, the AC50 on Cytochrome P450 3A4 is 3.55 µM (inconclusive); on Cytochrome P450 2C19 it was 20 µM (inconclusive).
For the compound `N#CCCn1c(=O)c(-c2ccc(F)cc2)nc2cnc(N3CCNCC3)nc21`, on Cytochrome P450 3A4, the AC50 is 25.1 µM (inconclusive).
In the case of `CC(C)NCC(O)COCc1ccc(Cl)cc1` (stereo unspecified), the EC50 in assay [2] was > 260 µM (inactive).
Take `CS(=O)(=O)N1CCC[C@@]2(CCN(C(=O)Nc3cccc(F)c3)C2)C1`: at Cytochrome P450 3A4, the AC50 is 12.6 µM (inconclusive).
`CCOC(=O)N1CCN(/C=C(\C#N)c2nc3ccccc3s2)CC1`: the concentration giving a half-maximal response (EC50) was 38 µM (active) in assay [5]; > 300 µM (not active) in assay [6]; > 300 µM (not active) in assay [7]; 37.5 µM (active) in the assay on H4; 14.7 µM (active) in assay [8].
With `COc1ccc(O[C@H]2C=C[C@@H](c3ccccc3)O[C@H]2CO/N=C(/C)CCC(=O)OC[C@@H]2O[C@H](C#Cc3ccccc3)C=C[C@@H]2Oc2ccc(C)cc2)cc1`, the values for the concentration at half-maximal activity (AC50) on Cytochrome P450 3A4 and at Cytochrome P450 2C19 were 3.16 µM (inconclusive) and 0.126 µM (inconclusive), respectively.
Regarding `CC(=O)Nc1ccc(NC(=O)c2ccc(NS(=O)(=O)c3cc(C(C)(C)C)cc(C)c3C)cc2)cc1`, the concentration for a half-maximal effect (EC50) in assay [2] was 12.5 µM (active).
With `CCN(CC(=O)Nc1ccc(NC(C)=O)cc1)C(=O)c1ccccc1CCc1ccccc1`, the AC50 in assay [1] was > 195 µM (inactive).
Regarding `Cn1c(S)nnc1CNS(=O)(=O)c1ccc(Cl)cc1`, the AC50 at Cytochrome P450 3A4 is 15.8 µM (inconclusive).
Take `CC(c1ccccc1)N1CC(C(=O)N2CCN(c3ccc(F)cc3)CC2)CC1=O` (stereo unspecified): the EC50 in assay [2] was > 260 µM (inactive).
Consider `CC(NC(=O)c1ccc(Cl)cc1)c1nnc(SCc2ccc([N+](=O)[O-])cc2)n1C` (stereo unspecified), for which the AC50 at Cytochrome P450 3A4 is 8.91 µM (inconclusive); at Cytochrome P450 2C9 it was 28.2 µM (inconclusive); on Cytochrome P450 1A2, 15.8 µM (inconclusive); at Cytochrome P450 2C19 it was 39.8 µM (inconclusive).
Regarding `CCOc1cccc2cc(C(N)=O)/c(=N/Cc3ccccc3)oc12`, the half-maximal activity concentration (AC50) at Cytochrome P450 3A4 is 14.1 µM (inconclusive).
For the compound `O=C(CCC1CCCC1)/N=C1\SC2CS(=O)(=O)CC2N1c1ccccc1F` (stereo unspecified), the EC50 in assay [2] is > 260 µM (inactive).
As to `Nc1nnnn1/N=C\c1ccc(Cl)c([N+](=O)[O-])c1`, the EC50 in assay [2] is > 260 µM (inactive).
Turning to `Cc1noc(NS(=O)(=O)c2cccc3c(N(C)C)cccc23)c1C` [BMS-182874], at Cytochrome P450 3A4, the half-maximal activity concentration (AC50) was 20 µM (inconclusive).
As for `CCCCN1CCCC[C@H]1C(=O)Nc1c(C)cccc1C` [LEVOBUPIVACAINE], the AC50 on Cytochrome P450 3A4 is 10 µM (inconclusive).
